The assay addresses SARS-CoV-2 M^PRO (Severe acute respiratory syndrome coronavirus 2, UniProt P0DTD1). Nature of the assay: biochemical. Type of assay: biochemical. As to conditions: In vitro potency data; 30 min pre-incubation, 25 nM M^pro, 25 µM substrate; read-out: IC50.

Consider 22 molecules from patent publication US20230174488A1 (priority 2020, published 2023).

Regarding `O=C(NC1CCC(F)(F)CC1)[C@@H](c1cncnc1)N(C(=O)CCl)c1ccc(-c2ccns2)cc1`, the IC50 was 60 nM.

With `O=C(NC1CCC(F)(F)CC1)[C@H](c1cncnc1)N(C(=O)CCl)c1ccc(-c2ccns2)cc1`, the IC50 came out at 190 nM.

Turning to `N#Cc1cc(OC(F)(F)F)ccc1N(C(=O)C(F)Cl)C(C(=O)NC1CCC(F)(F)CC1)c1cncnc1` (mixture of isomers) [INSCoV-517C, 2-Chloro-N-(2-cyano-4-(trifluoromethoxy)phenyl)-N-(2-((4,4-difluorocyclohexyl)amino)-2-oxo-1-(pyrimidin-5-yl)ethyl)-2-fluoroacetamide], the IC50 was 110 nM.

As for `O=C(NC1CCC(F)(F)CC1)[C@H](c1cnccn1)N(C(=O)CCl)c1ccc(-c2ccno2)cc1` (racemic) [INSCoV-601H, 2-Chloro-N-(2-((4,4-difluorocyclohexyl)amino)-2-oxo-1-(pyrazin-2-yl)ethyl)-N-(4-(isoxazol-5-yl)phenyl)acetamide], the IC50 was determined as 100 nM.

Consider `O=C(NC1CCC(F)(F)CC1)C(c1ccnnc1)N(C(=O)CCl)c1ccc(-c2ccns2)cc1` (racemic) [INSCoV-601J], for which the IC50 was 120 nM.

Turning to `O=C(N[C@H]1CCOC1)C(c1cnccn1)N(C(=O)CCl)c1ccc(-c2ccno2)cc1` (mixture of isomers) [INSCoV-601Q, 2-Chloro-N-(4-(isoxazol-5-yl)phenyl)-N-(2-oxo-1-(pyrazin-2-yl)-2-(((S)-tetrahydrofuran-3-yl)amino)ethyl)acetamid], the IC50 came out at 150 nM.

With `CC(C)(C)c1ccc(N(C(=O)CCl)C(C(=O)NC2CCCCC2)c2cccnc2)cc1` (single isomer, unassigned) [INSCoV-110A(1), 2-(4-tert-butyl-N-(2-chloroacetyl)anilino)-N-cyclohexyl-2-(3-pyridyl)acetamide], the IC50 is 1980 nM.

As for `CC(C)(C)c1ccc(N(C(=O)CCl)C(C(=O)NC2CCCCC2)c2cccnc2)cc1` (single isomer, unassigned) [INSCoV-110A(2), 2-(4-tert-butyl-N-(2-chloroacetyl)anilino)-N-cyclohexyl-2-(3-pyridyl)acetamide], the IC50 amounted to 2150 nM.

Regarding `N#Cc1cc(OC(F)(F)F)ccc1N(C(=O)CCl)C(C(=O)NC1CCC(F)(F)CC1)c1cncnc1` (single isomer, unassigned) [INSCoV-517A(1A), 2-Chloro-N-(2-cyano-4-(trifluoromethoxy)phenyl)-N-(2-((4,4-difluorocyclohexyl)amino)-2-oxo-1-(pyrimidin-5-yl)ethyl)acetamide], the IC50 was found to be 30 nM.

As to `N#Cc1cc(OC(F)(F)F)ccc1N(C(=O)CCl)C(C(=O)NC1CCC(F)(F)CC1)c1cncnc1` (single isomer, unassigned) [INSCoV-517A(1B), 2-Chloro-N-(2-cyano-4-(trifluoromethoxy)phenyl)-N-(2-((4,4-difluorocyclohexyl)amino)-2-oxo-1-(pyrimidin-5-yl)ethyl)acetamide], the IC50 came to 3250 nM.

As to `N#Cc1cc(OC(F)(F)F)ccc1N(C(=O)C(F)Cl)C(C(=O)NC1CCC(F)(F)CC1)c1cncnc1` (single isomer, unassigned) [INSCoV-517C(1), 2-Chloro-N-(2-cyano-4-(trifluoromethoxy)phenyl)-N-(2-((4,4-difluorocyclohexyl)amino)-2-oxo-1-(pyrimidin-5-yl)ethyl)-2-fluoroacetamide], the IC50 was determined as 11200 nM.

As for `N#Cc1cc(OC(F)(F)F)ccc1N(C(=O)[C@H](F)Cl)[C@@H](C(=O)NC1CCC(F)(F)CC1)c1cncnc1` (single isomer, unassigned) [INSCoV-517C(2), 2-Chloro-N-(2-cyano-4-(trifluoromethoxy)phenyl)-N-(2-((4,4-difluorocyclohexyl)amino)-2-oxo-1-(pyrimidin-5-yl)ethyl)-2-fluoroacetamide], the IC50 came out at 11400 nM.

For the molecule `N#Cc1cc(OC(F)(F)F)ccc1N(C(=O)C(F)Cl)C(C(=O)NC1CCC(F)(F)CC1)c1cncnc1` (single isomer, unassigned) [INSCoV-517C(3), 2-Chloro-N-(2-cyano-4-(trifluoromethoxy)phenyl)-N-(2-((4,4-difluorocyclohexyl)amino)-2-oxo-1-(pyrimidin-5-yl)ethyl)-2-fluoroacetamide], the IC50 is 70 nM.

Take `N#Cc1cc(OC(F)(F)F)ccc1N(C(=O)[C@H](F)Cl)[C@@H](C(=O)NC1CCC(F)(F)CC1)c1cncnc1` (single isomer, unassigned) [INSCoV-517C(4), 2-Chloro-N-(2-cyano-4-(trifluoromethoxy)phenyl)-N-(2-((4,4-difluorocyclohexyl)amino)-2-oxo-1-(pyrimidin-5-yl)ethyl)-2-fluoroacetamide]: the IC50 is more than 25000 nM.

With `O=C(NC1CCC(F)(F)CC1)C(c1cncnc1)N(C(=O)CCl)c1ccc(-c2ccno2)cc1` (single isomer, unassigned) [INSCoV-600J(2), 2-Chloro-N-(2-((4,4-difluorocyclohexyl)amino)-2-oxo-1-(pyrimidin-5-yl)ethyl)-N-(4-(isoxazol-5-yl)phenyl)acetamide], the IC50 was found to be 530 nM.

For the molecule `O=C(NC1CCC(F)(F)CC1)C(c1cncnc1)N(C(=O)CCl)c1ccc(-c2cncs2)cc1` (single isomer, unassigned) [INSCoV-600K(2), 2-Chloro-N-(2-((4,4-difluorocyclohexyl)amino)-2-oxo-1-(pyrimidin-5-yl)ethyl)-N-(4-(thiazol-5-yl)phenyl)acetamide], the IC50 is 430 nM.

On to `O=C(NC1CCC(F)(F)CC1)C(c1cncnc1)N(C(=O)[C@@H]1CO1)c1ccc(-c2cnco2)cc1` (single isomer, unassigned) [INSCoV-600R(2A)], for which the IC50 was 2930 nM.

Take `O=C(NC1CCC(F)(F)CC1)C(c1cnccn1)N(C(=O)CCl)c1ccc(-c2cncs2)cc1` (single isomer, unassigned) [INSCoV-601G(1), 2-Chloro-N-(2-((4,4-difluorocyclohexyl)amino)-2-oxo-1-(pyrazin-2-yl)ethyl)-N-(4-(thiazol-5-yl)phenyl)acetamide]: the IC50 stood at 60 nM.

Take `O=C(NC1CCC(F)(F)CC1)C(c1cnccn1)N(C(=O)CCl)c1ccc(-c2cncs2)cc1` (single isomer, unassigned) [INSCoV-601G(2), 2-Chloro-N-(2-((4,4-difluorocyclohexyl)amino)-2-oxo-1-(pyrazin-2-yl)ethyl)-N-(4-(thiazol-5-yl)phenyl)acetamide]: the IC50 came to 270 nM.

On to `O=C(NC1CCC(F)(F)CC1)C(c1cnccn1)N(C(=O)CCl)c1ccc(-c2ccns2)cc1` (single isomer, unassigned) [INSCoV-601I(2), 2-chloro-N-(2-((4,4-difluorocyclohexyl)amino)-2-oxo-1-(pyrazin-2-yl)ethyl)-N-(4-(isothiazol-5-yl)phenyl)acetamide], for which the IC50 worked out at 210 nM.

Turning to `CC(C(=O)NC1CCC(F)(F)CC1)(c1cnccn1)N(C(=O)CCl)c1ccc(-c2ccns2)cc1` (single isomer, unassigned) [INSCoV-601N(1), 2-(2-Chloro-N-(4-(isothiazol-5-yl)phenyl)acetamido)-N-(4,4-difluorocyclohexyl)-2-(pyrazin-2-yl)propanamide], the IC50 amounted to 130 nM.

Take `CC(C(=O)NC1CCC(F)(F)CC1)(c1cnccn1)N(C(=O)CCl)c1ccc(-c2ccns2)cc1` (single isomer, unassigned) [INSCoV-601N(2), 2-(2-Chloro-N-(4-(isothiazol-5-yl)phenyl)acetamido)-N-(4,4-difluorocyclohexyl)-2-(pyrazin-2-yl)propanamide]: the IC50 was found to be 3490 nM.
